The record followed here is patent publication US20070049626A1, “Treating premature ejaculation using gabapentin and pregabalin prodrugs” (priority 2005, published 2007).

As usually defined, the Tmax is the time at which the peak concentration occurs.

Data set [1] deals with PCA-induced ejaculation in anaesthetized rats. In words: p-chloroamphetamine (PCA)-induced ejaculation in anaesthetized rats. It is filed as in vivo, rat. The following applies: for effect on PCA-induced ejaculation: 1, 3, 10 or 30 mg/kg po, 60 min prior to PCA; for quality of erection: PCA model; for ejaculatory latency: doses above 3 mg/kg po, excipient-only about 300 s. On the procedure:
(§1) For all the sexual behavior tests, the rapid ejaculating Sprague Dawley rats, weighing 350-450 g, are used as an animal model of premature ejaculation (classified as ejaculatory latency <300 s during baseline assessment). Prior to the experiments the animals are housed in groups (2 rats per cage) under controlled 12 h light-dark cycle (lights on at 07:00), constant temperature (23±1° C.), and humidity (55±5%). The animals are given free access to standard food pellets and water.
The compounds are dosed orally by taking the tablets of Examples 1 and 2, finely crushing them and suspending the resulting powder in an aqueous vehicle for oral administration to rats by gavage. Compounds (100) and (101) are tested at 1, 3, 10 or 30 mg/kg po, 60 min prior to PCA administration. Compounds (100) and (101) each dose-dependently increases ejaculatory latency by up to 250%. As a baseline comparison, some of the rats are given a placebo formulation similar to Examples 1 and 2, but containing no prodrug.

The test system of data set [2] is rapid ejaculating Sprague Dawley rats. Put plainly: Copulatory behavior in rapid ejaculating conscious rats (model of premature ejaculation). Type of data set: in vivo, rat. The following applies: rapidly-ejaculating conscious rats; for other effects on copulatory behavior: 10 mg/kg oral; for increase of ejaculatory latency / ejaculatory latency (time to ejaculate): 10 mg/kg, 60 min post oral dosing; for increase of ejaculatory latency: P<0.01; for ejaculatory latency (time to ejaculate): excipient-only about 140 s. On the procedure: as §1
The rats are placed in an observation arena (50-60 cm diameter), starting 5 hours into the dark cycle and observed under red illumination. Three to four minutes after placing the male in the arena, a receptive female (ovariectomised, oestradiol benzoate/progesterone injection 48 hour before behavioral study) is introduced into the arena and the following parameters are noted: (i) ejaculatory latency (EJL; time taken from addition of receptive female into the arena to ejaculation); (ii) copulatory efficiency (CE; ejaculatory latency/the number of intromissions to ejaculation, i.e., the number of seconds between intromissions); (iii) intromission frequency (IF; the number of intromissions to ejaculation); (iv) mount frequency (MF; the number of mounts to ejaculation); (v) post ejaculatory interval (PEI; the time taken from ejaculation to the commencement of copulatory behavior).
Rodent copulatory behavior is characterized by a series of mounts, with and without vaginal insertion (50-80% of mounts result in intromission (vaginal penetration)) and ejaculation occurs after 6 to 12 intromissions. Each intromission lasts a matter of seconds—it is not possible to quantify intromission length i.e., intravaginal latency. The effect of compounds (100) and (101) is assessed on a number of copulatory parameters (see above). We are focusing on ejaculatory latency as an objective clinical outcome measure of time taken to achieve ejaculation. The study is performed in rapid ejaculating rats as a model of premature ejaculation (rats characterized by ejaculatory latency <300 s at baseline). Compound (100) and (101) increases ejaculatory latency by 58% in rapidly-ejaculating conscious rats (P<0.01), i.e., compound (100) and (101) (each to be dosed at 10 mg/kg, 60 min post oral dosing)-treated animals take about 200 s to ejaculate compared to about 140 s in excipient-only treated animals.

A short description of data set [3]: Tmax after oral administration of immediate release formulation. Type of data set: in vivo. The following applies: human, blood, following oral administration. An excerpt: The compounds disclosed herein, for example, the gabapentin prodrug 1-{[(α-isobutanoyloxyethoxy)carbonyl]aminomethyl}-1-cyclohexane acetic acid, is more efficacious than the parent drug molecule (i.e., gabapentin) in treating premature ejaculation because the disclosed compounds require less time to reach a therapeutic concentration in the blood, i.e., the compounds disclosed herein have a shorter Tmax than their gabapentin or pregabalin “counterparts” when taken orally. […] This provides an advantage over the parent drugs (i.e., gabapentin and pregabalin) in that the patient need not wait as long after administering the prodrugs before a therapeutic concentration of the active parent drug in the blood is reached. Thus, the prodrugs disclosed herein allow the patient to dose shortly before sexual activity, allowing sexual activity to occur with more spontaneity, compared to dosing of either gabapentin or pregabalin.

Regarding `CC(OC(=O)NCC1(CC(=O)O)CCCCC1)OC(=O)C(C)C` (stereo not drawn) [Compound (100), 1-{[(α-Isobutanoyloxyethoxy)carbonyl]aminomethyl}-1-Cyclohexane Acetic Acid], in data set [1], the “effect on PCA-induced ejaculation” value is listed as “significantly delays”, the quality of erection result is on record as “not influenced” and the ejaculatory latency entry is on record as “about 1000 s”. For the same molecule, in data set [2], the “other effects on copulatory behavior” value was “no other significant effects”, the “increase of ejaculatory latency” value was 58% and the “ejaculatory latency (time to ejaculate)” value is listed as “about 200 s”.
Consider `CC(C)CC(CNC(=O)OC(C)OC(=O)C(C)C)CC(=O)O` (stereo not drawn) [Compound (101), 3-{[(α-Isobutanoyloxyethoxy)carbonyl]aminomethyl}-5-methyl Hexanoic Acid], for which, in data set [1], the “effect on PCA-induced ejaculation” value is recorded as “significantly delays”, the quality of erection entry is reported as “not influenced” and the ejaculatory latency entry is listed as “about 1000 s”. In addition, in data set [2], the “other effects on copulatory behavior” value was “no other significant effects”, the “increase of ejaculatory latency” value stood at 58% and the “ejaculatory latency (time to ejaculate)” value is reported as “about 200 s”.
As for `NCC1(CC(=O)O)CCCCC1` [gabapentin], the Tmax in data set [3] was 2.8 to 3.3 h.
